Several values for one entry are separate records, joined by “and”; a condition that tells them apart may be missing. Equal values may be shown once. Entries after “also recorded” stand apart in the source; their conditions may differ.
What was measured:
Type in all cases: binding
MERS-CoV macro domain [1] = molecular target: T1, MERS-CoV macro domain (Middle East respiratory syndrome-related coronavirus, UniProt K9N638)
MERS-CoV macro domain [2] = molecular target: T1, MERS-CoV macro domain; remark: listed apart in the source
MERS-CoV macro domain [3] = molecular target: T1, MERS-CoV macro domain; remark: listed apart in the source
MERS-CoV macro domain [4] = molecular target: T1, MERS-CoV macro domain; remark: listed apart in the source

T1 sequence (K9N638 1110-1276 limits assumed): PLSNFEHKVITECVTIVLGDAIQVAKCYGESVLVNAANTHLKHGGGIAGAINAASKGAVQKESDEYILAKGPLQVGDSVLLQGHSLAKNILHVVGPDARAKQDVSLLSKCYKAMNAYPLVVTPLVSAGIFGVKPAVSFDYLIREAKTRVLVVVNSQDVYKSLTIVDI

## Nc1ncnc2c1ncn2[C@@H]1O[C@H](COP(=O)(O)OP(=O)(O)OP(=O)(O)O)[C@@H](O)[C@H]1O [ATP, adenosine triphosphate]
MERS-CoV macro domain [1]
  n (stoichiometry of binding): 1.28 ± 0.23
  ΔH: -0.103 ± 0.0621 kcal/mol
  −TΔS: -4.725 ± 0.115 kcal/mol
MERS-CoV macro domain [2]
  Melting temperature (Tm) of the MERS-CoV macro domain in complex, DSF: 43.0 °C
MERS-CoV macro domain [3]
  NMR CSP, residue 4: 0.02128 and 0.03079
  NMR CSP, residue 8: 0.08407 and 0.1389
  NMR CSP, residue 11: 0.01204 and 0.01003
  NMR CSP, residue 12: 0.02593 and 0.01302
  NMR CSP, residue 13: 0.02822 and 0.05324
  NMR CSP, residue 15: 0.05255 and 0.08443
  NMR CSP, residue 16: 0.08559 and 0.1065
  NMR CSP, residue 19: 0.2213 and 0.3991
  NMR CSP, residue 20: 0.5582 and 0.5971
  NMR CSP, residue 24: 0.02113 and 0.02272
  NMR CSP, residue 27: 0.04023 and 0.04654
  NMR CSP, residue 31: 0.01765 and 0.03281
  NMR CSP, residue 32: 0.03557 and 0.06867
  NMR CSP, residue 33: 0.003317 and 0.005514
  NMR CSP, residue 35: 0.08722 and 0.0586
  NMR CSP, residue 41: 0.07865 and 0.1421
  NMR CSP, residue 42: 0.02022 and 0.03875
  NMR CSP, residue 44: 0.117 and 0.1567
  NMR CSP, residue 46: 0.2082 and 0.117
  NMR CSP, residue 49: 0.1963 and 0.3148
  NMR CSP, residue 52: 0.1171 and 0.2037
  NMR CSP, residue 53: 0.06017 and 0.08476
  NMR CSP, residue 54: 0.04378 and 0.08204
  NMR CSP, residue 55: 0.03609 and 0.04139
  NMR CSP, residue 56: 0.1144
  NMR CSP, residue 59: 0.1073 and 0.0995
  NMR CSP, residue 64: 0.02081 and 0.02918
  NMR CSP, residue 67: 0.009187 and 0.006075
  NMR CSP, residue 68: 0.007457 and 0.01342
  NMR CSP, residue 69: 0.006641 and 0.01241
  NMR CSP, residue 70: 0.007029 and 0.01308
  NMR CSP, residue 74: 0.01357 and 0.01451
  NMR CSP, residue 76: 0.1087 and 0.1584
  NMR CSP, residue 79: 0.06062 and 0.09243
  NMR CSP, residue 80: 0.02546 and 0.0359
  NMR CSP, residue 82: 0.03386 and 0.028
  NMR CSP, residue 88: 0.01281 and 0.02472
  NMR CSP, residue 91: 0.02979 and 0.05588
  NMR CSP, residue 92: 0.05948 and 0.09574
  NMR CSP, residue 98: 0.08735 and 0.113
  NMR CSP, residue 99: 0.04875 and 0.06519
  NMR CSP, residue 101: 0.01539 and 0.022
  NMR CSP, residue 102: 0.003066
  NMR CSP, residue 104: 0.03263 and 0.04354
  NMR CSP, residue 105: 0.0458 and 0.08781
  NMR CSP, residue 108: 0.03048 and 0.01721
  NMR CSP, residue 109: 0.0202 and 0.03155
  NMR CSP, residue 111: 0.0136 and 0.02579
  NMR CSP, residue 113: 0.02518 and 0.03785
  NMR CSP, residue 117: 0.02758 and 0.03325
  NMR CSP, residue 119: 0.05435 and 0.04262
  NMR CSP, residue 122: 0.04092 and 0.06158
  NMR CSP, residue 125: 0.4401 and 0.7457
  NMR CSP, residue 126: 0.163 and 0.2535
  NMR CSP, residue 131: 0.1039 and 0.07453
  NMR CSP, residue 132: 0.1244 and 0.1155
  NMR CSP, residue 135: 0.05654 and 0.08994
  NMR CSP, residue 136: 0.05575 and 0.07379
  NMR CSP, residue 138: 0.04766 and 0.08654
  NMR CSP, residue 139: 0.05001 and 0.03334
  NMR CSP, residue 140: 0.07046 and 0.09693
  NMR CSP, residue 144: 0.02987 and 0.05222
  NMR CSP, residue 148: 0.04492 and 0.05905
  NMR CSP, residue 149: 0.04139 and 0.04999
  NMR CSP, residue 151: 0.03194 and 0.04624
  NMR CSP, residue 152: 0.2468
  NMR CSP, residue 153: 0.1157 and 0.09952
  NMR CSP, residue 155: 0.2226 and 0.3418
  NMR CSP, residue 156: 0.03888
  NMR CSP, residue 158: 0.03042 and 0.04983
  NMR CSP, residue 159: 0.008826 and 0.007483
  NMR CSP, residue 161: 0.02817 and 0.01678
  NMR CSP, residue 164: 0.03315 and 0.0552
MERS-CoV macro domain [4]
  Melting temperature (Tm) of the MERS-CoV macro domain in complex, CD: 44.4 °C

## Nc1ncnc2c1ncn2[C@@H]1O[C@H](COP(=O)(O)OP(=O)(O)O)[C@@H](O)[C@H]1O [ADP, adenosine diphosphate]
MERS-CoV macro domain [1]
  n (stoichiometry of binding): 1.08 ± 0.06
  ΔH: -3.85 ± 1.8 kcal/mol
  −TΔS: -1.86 ± 1.51 kcal/mol
MERS-CoV macro domain [2]
  Melting temperature (Tm) of the MERS-CoV macro domain in complex, DSF: 44.5 °C
MERS-CoV macro domain [3]
  NMR CSP, residue 11: 0.01279 and 0.006701
  NMR CSP, residue 29: 0.01328 and 0.01691
  NMR CSP, residue 36: 0.05057
  NMR CSP, residue 37: 0.07911
  NMR CSP, residue 46: 0.3834
  NMR CSP, residue 47: 0.05654 and 0.03639
  NMR CSP, residue 48: 0.08159 and 0.1212
  NMR CSP, residue 67: 0.0178 and 0.009143
  NMR CSP, residue 75: 0.05887 and 0.06181
  NMR CSP, residue 94: 0.1393
  NMR CSP, residue 101: 0.03691 and 0.02294
  NMR CSP, residue 125: 0.08579
  NMR CSP, residue 130: 0.08457 and 0.1167
  NMR CSP, residue 132: 0.01774 and 0.01343
  NMR CSP, residue 149: 0.01454
  NMR CSP, residue 154: 0.08237
  NMR CSP, residue 156: 0.2276
MERS-CoV macro domain [4]
  Melting temperature (Tm) of the MERS-CoV macro domain in complex, CD: 43.7 °C

## Nc1ncnc2c1ncn2C1OC(COP(=O)(O)O)C(O)C1O (centres unmarked) [AMP, adenosine monophosphate]
MERS-CoV macro domain [1]
  n (stoichiometry of binding): 1.05 ± 0.38
  ΔH: -2.674 ± 0.722 kcal/mol
  −TΔS: -2.419 ± 0.571 kcal/mol
MERS-CoV macro domain [2]
  Melting temperature (Tm) of the MERS-CoV macro domain in complex, DSF: 42.5 °C
MERS-CoV macro domain [3]
  NMR CSP, residue 12: 0.007029 and 0.005468
  NMR CSP, residue 22: 0.06732 and 0.05323
  NMR CSP, residue 23: 0.01249 and 0.01858
  NMR CSP, residue 31: 0.03059 and 0.02592
  NMR CSP, residue 55: 0.07284 and 0.04017
  NMR CSP, residue 67: 0.009649 and 0.005916
  NMR CSP, residue 70: 0.01453 and 0.01754
  NMR CSP, residue 71: 0.01269 and 0.01423
  NMR CSP, residue 78: 0.004301 and 0.003017
  NMR CSP, residue 81: 0.019 and 0.02485
  NMR CSP, residue 85: 0.01205 and 0.01581
  NMR CSP, residue 90: 0.01829 and 0.02265
  NMR CSP, residue 99: 0.0122 and 0.008579
  NMR CSP, residue 110: 0.01629 and 0.01233
  NMR CSP, residue 130: 0.0583 and 0.06532
  NMR CSP, residue 138: 0.02281 and 0.03131
  NMR CSP, residue 153: 0.05051
  NMR CSP, residue 156: 0.1498
  NMR CSP, residue 161: 0.003728 and 0.003225
  NMR chemical shift perturbation behaviour / exchange regime: fast-exchange; also recorded: almost no chemical shift perturbation
MERS-CoV macro domain [4]
  Melting temperature (Tm) of the MERS-CoV macro domain in complex, CD: 44.0 °C

From paper PMC7840908 (Communications Biology, 2021)
